In this test the target is T1, bromodomain BRD4 (44-168), BRD4 (333-460), and BRD4 (1-477 or 44-460) (Homo sapiens, UniProt O60885).
T1 construct: BRD4(44-168), BRD4(333-460), BRD4(44-460), BRD4(1-477), O60885-1; fused on or other part: N-terminal BirA biotinylation motif, biotinylated; The TVMV-cleavable His6 tag is removed, except in some BRD4(44-460) runs detected with anti-His terbium cryptate
Put plainly: Time Resolved Fluorescence Resonance Energy Transfer (TR-FRET) binding assay. Particulars: one of the FRET assays described.

For `CNC(=O)c1cc(-c2c(C)noc2C)cc2c1c1cc(C(=O)N3C[C@@H](C)O[C@@H](C)C3)ccc1n2Cc1ccccc1` [Example 117, 9-benzyl-2-(3,5-dimethylisoxazol-4-yl)-6-(cis-2,6-dimethylmorpholine-4-carbonyl)-N-methyl-9H-carbazole-4-carboxamide], the IC50 (in general, the concentration that gives 50% inhibition) is below 50 nM.

Take `CNC(=O)c1cc(-c2c(C)noc2C)cc2c1c1cc(N(C)C)ccc1n2Cc1ccccc1` [Example 141, 9-benzyl-6-(dimethylamino)-2-(3,5-dimethyl-4-isoxazolyl)-N-methyl-9H-carbazole-4-carboxamide]: the IC50 is below 50 nM.

In the case of `Cc1noc(C)c1-c1cc(C(N)=O)c2c3cc(N(CCO)CCO)ccc3n(Cc3ccccc3)c2c1` [Example 140, 9-benzyl-6-(bis(2-hydroxyethyl)amino)-2-(3,5-dimethyl-4-isoxazolyl)-9H-carbazole-4-carboxamide], the IC50 is below 50 nM.

Turning to `COC(=O)c1ccc2c3c(C(N)=O)cc(-c4c(C)noc4C)cc3n(C(c3ccccc3)c3ccccc3)c2c1` [Example 192, Methyl 5-carbamoyl-7-(3,5-dimethyl-4-isoxazolyl)-9-(diphenylmethyl)-9H-carbazole-2-carboxylate], the IC50 was below 50 nM.

`Cc1noc(C)c1-c1cc(C(N)=O)c2c3cc(C(=O)N4C[C@@H](C)O[C@@H](C)C4)ccc3n(C(=O)c3ccccc3)c2c1` [Example 46, 9-benzoyl-2-(3,5-dimethylisoxazol-4-yl)-6-(cis-2,6-dimethylmorpholine-4-carbonyl)-9H-carbazole-4-carboxamide]: the IC50 is below 500 nM.

Take `CCn1c2ccc(C(=O)N3C[C@@H](C)O[C@@H](C)C3)cc2c2ccc(-c3c(C)noc3C)cc21` [Example 2, 2-(3,5-dimethyl-4-isoxazolyl)-6-((cis-2,6-dimethyl-4-morpholinyl)carbonyl)-9-ethyl-9H-carbazole]: the IC50 is below 500 nM.

As to `COc1ccccc1Cn1c2ccc(C(=O)N3CC(C)OC(C)C3)cc2c2c(C(N)=O)cc(-c3c(C)noc3C)cc21` (centres unmarked) [Example 40], the half-inhibitory concentration (IC50) was below 50 nM.

For the compound `CNC(=O)c1cc(-c2c(C)noc2C)cc2c1c1cc(C(=O)N3CC(F)C3)ccc1n2C(C)c1ccccc1` (centres unmarked) [Example 113], the IC50 was below 50 nM.

In turn, `Cc1noc(C)c1-c1cc(C(N)=O)c2c3ccc(C(C)(C)O)c(F)c3n(C(c3ccccc3)C3CCC(F)(F)CC3)c2c1` (single isomer, unassigned) [Example 227, 9-[(4,4-difluorocyclohexyl)(phenyl)methyl]-2-(dimethyl-1,2-oxazol-4-yl)-8-fluoro-7-(2-hydroxypropan-2-yl)-9H-carbazole-4-carboxamide] showed an IC50 below 50 nM.

The compound `Cc1noc(C)c1-c1cc(C(N)=O)c2c3cc(C(=O)N4CC[C@H](F)C4)ccc3n(Cc3ccccc3)c2c1` [Example 59] displayed an IC50 below 50 nM.

The compound `CC(=O)N(C)c1ccc2c(c1)c1c(C(N)=O)cc(-c3c(C)noc3C)cc1n2Cc1ccccc1` [Example 131, 9-benzyl-2-(3,5-dimethylisoxazol-4-yl)-6-(N-methylacetamido)-9H-carbazole-4-carboxamide] displayed an IC50 below 50 nM.

In the case of `Cc1noc(C)c1-c1cc(C(N)=O)c2c3cc(C(=O)N4CC(C)OC(C)C4)ccc3n(Cc3cscn3)c2c1` (centres unmarked) [Example 27], the IC50 is below 50 nM.

Turning to `Cc1noc(C)c1-c1cc(C(N)=O)c2c3cc(C(=O)N4CC(F)C4)ccc3n(CC3CCC3)c2c1` [Example 90], the IC50 is below 50 nM.

The compound `Cc1noc(C)c1-c1cc(C#N)c2c3ccc(C(=O)O)cc3n(Cc3ccccc3)c2c1` [Example 186, 9-Benzyl-5-cyano-7-(3,5-dimethyl-4-isoxazolyl)-9H-carbazole-2-carboxylic acid] had an IC50 below 50 nM.

In the case of `CNC(=O)c1cc(-c2c(C)noc2C)cc2c1c1cc(C(=O)N3CC(F)C3)ccc1n2C(C)c1ccc(F)cc1` (centres unmarked) [Example 112], the IC50 was below 500 nM.

Compound `Cc1noc(C)c1-c1cc(C(N)=O)c2c3ccc(C(C)(C)O)c(F)c3n(C(c3ccc(F)cc3)C3CCOCC3)c2c1` (single isomer, unassigned) [Example 223, 2-(Dimethyl-1,2-oxazol-4-yl)-8-fluoro-9-[(4-fluorophenyl)(oxan-4-yl)methyl]-7-(2-hydroxypropan-2-yl)-9H-carbazole-4-carboxamide] registered an IC50 below 50 nM.

As for `Cc1noc(C)c1-c1cc(C(N)=O)c2c3cc(C(=O)N4CC(C)OC(C)C4)ccc3n(Cc3ccc(F)cc3F)c2c1` (centres unmarked) [Example 36], the IC50 is below 50 nM.

Compound `Cc1noc(C)c1-c1cc(C(N)=O)c2c3cc(C(=O)N4CC(F)C4)ccc3n(C(C)c3ccc(F)cc3)c2c1` (centres unmarked) [Example 91] showed an IC50 below 50 nM.

Consider `Cc1noc(C)c1-c1ccc2c3cc(C(=O)N4C[C@@H](C)O[C@@H](C)C4)ccc3n(C(=O)c3ccccc3)c2c1` [Example 24, 9-benzoyl-2-(3,5-dimethyl-4-isoxazolyl)-6-((cis-2,6-dimethyl-4-morpholinyl)carbonyl)-9H-carbazole], for which the IC50 was below 500 nM.

In turn, `CC(=O)Nc1ccc2c(c1)c1c(C(N)=O)cc(-c3c(C)noc3C)cc1n2Cc1ccccc1` [Example 142, 6-acetamido-9-benzyl-2-(3,5-dimethyl-4-isoxazolyl)-9H-carbazole-4-carboxamide] had an IC50 below 50 nM.

Turning to `Cc1oncc1-c1cc(C(N)=O)c2c3cc(C(=O)N4CCOCC4)ccc3n(Cc3ccc(F)cc3)c2c1` [Example 123, 9-(4-fluorobenzyl)-2-(5-methylisoxazol-4-yl)-6-(morpholine-4-carbonyl)-9H-carbazole-4-carboxamide], the IC50 is below 500 nM.

`Cc1noc(C)c1-c1cc(C(N)=O)c2c3cc(C(=O)N4CCC(F)C4)ccc3n(Cc3cccc(F)c3)c2c1` (centres unmarked) [Example 81] yielded an IC50 below 50 nM.

The compound `CCNC(=O)c1cc(-c2c(C)noc2C)cc2[nH]c3ccc(N4CCCOC4=O)cc3c12` [Example 154, 2-(3,5-dimethyl-4-isoxazolyl)-N-ethyl-6-(2-oxo-1,3-oxazinan-3-yl)-9H-carbazole-4-carboxamide] showed an IC50 below 7500 nM.

On to `CNC(=O)c1cc(-c2c(C)noc2C)cc2c1c1cc(N3CCCOC3=O)ccc1n2C(C)c1ccccc1` (centres unmarked) [Example 173, 2-(3,5-dimethyl-4-isoxazolyl)-N-methyl-6-(2-oxo-1,3-oxazinan-3-yl)-9-(1-phenylethyl)-9H-carbazole-4-carboxamide], for which the IC50 is below 7500 nM.

Turning to `Cc1noc(C)c1-c1cc(C(N)=O)c2c3cc(N4CCOC4=O)ccc3n(C(C)c3ccccc3)c2c1` (centres unmarked) [Example 163, 2-(3,5-dimethyl-4-isoxazolyl)-6-(2-oxo-1,3-oxazolidin-3-yl)-9-(1-phenylethyl)-9H-carbazole-4-carboxamide], the IC50 is below 50 nM.

The compound `COC1CN(C(=O)c2ccc3c(c2)c2c(C(N)=O)cc(-c4c(C)noc4C)cc2n3Cc2ccccc2)C1` [Example 52] displayed an IC50 below 50 nM.

`Cc1noc(C)c1-c1cc(C#N)c2c3ccc(C(C)(C)O)cc3n(Cc3ccccc3)c2c1` [Example 184, 9-benzyl-2-(3,5-dimethyl-4-isoxazolyl)-7-(1-hydroxy-1-methylethyl)-9H-carbazole-4-carbonitrile] returned an IC50 below 500 nM.

As to `Cc1noc(C)c1-c1cc(C(N)=O)c2c3cc(C(=O)N4CC(C)OC(C)C4)ccc3n(C(C)c3ccccc3)c2c1` (centres unmarked) [Example 39], the IC50 is below 50 nM.

Take `Cc1noc(C)c1-c1cc(C(N)=O)c2c3ccc(C(C)(C)O)c(F)c3n(C(c3ccccc3)C3CCC(F)(F)CC3)c2c1` (single isomer, unassigned) [Example 226, 9-[(4,4-difluorocyclohexyl)(phenyl)methyl]-2-(dimethyl-1,2-oxazol-4-yl)-8-fluoro-7-(2-hydroxypropan-2-yl)-9H-carbazole-4-carboxamide]: the IC50 is below 50 nM.

In turn, `Cc1noc(C)c1-c1cc(C(N)=O)c2c3ccc(C(C)(C)O)cc3n(CC3CCOCC3)c2c1` [Example 197, 2-(3,5-dimethyl-4-isoxazolyl)-7-(1-hydroxy-1-methylethyl)-9-(tetrahydro-2H-pyran-4-ylmethyl)-9H-carbazole-4-carboxamide] displayed an IC50 below 50 nM.

Compound `Cc1noc(C)c1-c1ccc2c3cc(C(=O)N4CC(C)OC(C)C4)ccc3n(Cc3ccc(Cl)cc3)c2c1` (centres unmarked) [Example 12] gave an IC50 below 500 nM.

With `CNC(=O)c1cc(-c2c(C)noc2C)cc2c1c1cc(C(=O)N3CC(F)C3)ccc1n2CC1CC1` [Example 115], the IC50 was below 50 nM.

In turn, `Cc1noc(C)c1-c1cc(C#N)c2c3ccc(C(N)=O)cc3n(C(c3ccccc3)c3ccccc3)c2c1` [Example 194, 5-Cyano-7-(3,5-dimethyl-4-isoxazolyl)-9-(diphenylmethyl)-9H-carbazole-2-carboxamide] yielded an IC50 below 50 nM.

On to `Cc1noc(C)c1-c1cc(C(N)=O)c2c3cc(C(=O)N4CC(C)OC(C)C4)ccc3n(Cc3ncco3)c2c1` (centres unmarked) [Example 29], for which the 50% inhibitory concentration (IC50) is below 500 nM.

Consider `CNC(=O)c1cc(-c2c(C)noc2C)cc2c1c1cc(N3CCCOC3=O)ccc1n2Cc1ccc(F)cc1` [Example 171, 2-(3,5-dimethyl-4-isoxazolyl)-9-(4-fluorobenzyl)-N-methyl-6-(2-oxo-1,3-oxazinan-3-yl)-9H-carbazole-4-carboxamide], for which the IC50 was below 50 nM.

Regarding `CNC(=O)c1cc(-c2c(C)noc2C)cc2c1c1cc(N(C)C(C)=O)ccc1n2Cc1ccccc1` [Example 132, 6-(acetyl(methyl)amino)-9-benzyl-2-(3,5-dimethyl-4-isoxazolyl)-N-methyl-9H-carbazole-4-carboxamide], the IC50 is below 50 nM.

In turn, `Cc1noc(C)c1-c1cc(C(N)=O)c2c3cc(C(=O)N4CCCC(C)(C)C4)ccc3n(Cc3ccccc3)c2c1` [Example 72] gave an IC50 below 50 nM.

In the case of `Cc1noc(C)c1-c1cc(C(N)=O)c2c3cc(C(=O)N4CCC(O)CC4)ccc3n(Cc3ccccc3)c2c1` [Example 67], the IC50 is below 50 nM.
